Like-named read-outs stand apart in the source and are kept apart here.
Assays:
[1] = tested on: Buffalo green monkey kidney (BGM 70) cells; test: [3H]-thymidine uptake cytotoxicity; assay type: cell-based; conditions: for inhibition at 0.4 µM / inhibition at 1.6 µM / inhibition at 2.5 µM / inhibition at 10 µM: Chlorocebus sabaeus, read-out: % Inhibition of [3H]-Thymidine Incorporated; for inhibition at 0.4 µM: 0.4 μmol/L; for inhibition at 1.6 µM: 1.6 μmol/L; for inhibition at 2.5 µM: 2.5 μmol/L; for inhibition at 10 µM: 10.0 μmol/L
[2] = tested on: HSV-2; test: Intracellular activity, inhibition of plaque forming units, HSV-2; assay type: cell-based, Herpes simplex virus type 2; conditions: for inhibition at 0.4 µM: Human alphaherpesvirus 2, HSV-2, 0.4 μmol/L; for inhibition at 1.6 µM: Human alphaherpesvirus 2, HSV-2, 1.6 μmol/L; for inhibition at 10 µM: Human alphaherpesvirus 2, HSV-2, 10.0 μmol/L
[3] = tested on: HSV-2; test: Extracellular activity, inhibition of plaque forming units, HSV-2; conditions: for inhibition at 0.4 µM: Human alphaherpesvirus 2, read-out: % Inhibition of PFU, EA (extracellular activity), HSV-2, 0.4 μmol/L; for inhibition at 1.6 µM: Human alphaherpesvirus 2, read-out: % Inhibition of PFU, EA (extracellular activity), HSV-2, 1.6 μmol/L; for inhibition at 2.5 µM: Human alphaherpesvirus 2, read-out: % Inhibition of PFU, EA (extracellular activity), HSV-2, 2.5 μmol/L; for inhibition at 10 µM: Human alphaherpesvirus 2, read-out: % Inhibition of PFU, EA (extracellular activity), HSV-2, 10.0 μmol/L
[4] = Inhibition of cell growth (microscopic cell count); assay type: cell-based, Buffalo green monkey; conditions: monkey, bgm-70 cells, read-out: % Reduction of cell growth; for inhibition at 24 h, 0.4 µM / inhibition at 48 h, 0.4 µM: 0.4 μmol/L; for inhibition at 24 h, 1.6 µM / inhibition at 48 h, 1.6 µM: 1.6 μmol/L; for inhibition at 24 h, 2.5 µM / inhibition at 48 h, 2.5 µM: 2.5 μmol/L; for inhibition at 24 h, 10 µM / inhibition at 48 h, 10 µM: 10.0 μmol/L; for inhibition at 24 h, 50 µM / inhibition at 48 h, 50 µM: 50.0 μmol/L; for inhibition at 24 h, 100 µM / inhibition at 48 h, 100 µM: 100.0 μmol/L
Description: a MASHII cell harvester and placed in a scintillation counter to determin
incorporation of labelled compound and level of toxicity. BGM 70 cells ar
seeded at a concentration of […] per well in a 24well tissue cultur
plate. Cells are planted in 2 mL of growth medium with or without the tes
compound and are incubated at 37° C. for 38 hours. At 24 hours
medium is removed from onehalf of the plates and the cells are fixed and
stained with crystal violet. The remaining cultures are fixed and stained
^b BGM 70 cells are counted microscopically and comparisons are made.
Experiments are performed blindly by assigning each compound concentratio
a letter code. The code is broken after the cells are counted.
The effect of the compounds on the inhibition of cell growth is determined using BGM-70 cells grown in vitro. For this assay, BGM 70 cells are seeded at a concentration of approximately 70 cells per well in 24-well tissue culture plates. Cells are planted in 2 ml of growth medium with or without the test compound and are incubated at 37° C. for 48 hours. At 24 hours, cells from one half of the plates are fixed and stained with crystal violet. The remaining cultures are fixed and stained at 48 hours. Cells are counted microscopically and comparisons are made between non-treated (control) and treated cells.

[5] = tested on: HSV; conditions: cited from earlier work; for extracellular inactivation of HSV: 0.5 mM
[6] = tested on: enveloped viruses; conditions: cited from earlier work
[7] = tested on: viruses having no lipids; conditions: cited from earlier work
[8] = tested on: cellular protein synthesis; conditions: Pottage et al., cited from earlier work
[9] = tested on: HBV surface antigen; conditions: Pottage et al., cited from earlier work
[10] = tested on: herpes simplex virus type 1 (HSV-1); conditions: cited from earlier work
[11] = tested on: enveloped virus .phi. 6; conditions: cited from earlier work
[12] = tested on: human immunodeficiency virus (HIV); conditions: cited from earlier work
[13] = at concentrations of 10 μM or less
[14] = read-out: % Inhibition of PFU, IA (intracellular activity)

Compound: CC1(c2ccc(Cl)cc2)OC(=O)C(O)=C1O (racemic) [Compound 1]
- inhibition at 0.4 µM ([1]; 24 h): 0%
- inhibition at 1.6 µM ([1]; 24 h): 16.7 ± 12.7%
- inhibition at 2.5 µM ([1]; 24 h): 66.7 ± 5.8%
- inhibition at 10 µM ([1]; 24 h): 95 ± 0.4%
- inhibition at 0.4 µM ([1]; 48 h): 0%
- inhibition at 1.6 µM ([1]; 48 h): 14.5 ± 15.5%
- inhibition at 2.5 µM ([1]; 48 h): 74.3 ± 9.3%
- inhibition at 10 µM ([1]; 48 h): 98.6 ± 0.5%
- inhibition at 0.4 µM ([1]; 72 h): 0%
- inhibition at 1.6 µM ([1]; 72 h): 39.9 ± 15.7%
- inhibition at 2.5 µM ([1]; 72 h): 53.9 ± 16.3%
- inhibition at 10 µM ([1]; 72 h): 98.2 ± 0.8%
- toxicity ([3H]-thymidine uptake and/or cell growth) [1, 13]: display toxicity
- inhibition at 0.4 µM [2, 14]: 0%
- inhibition at 1.6 µM [2, 14]: 8 ± 2.4%
- inhibition at 0.4 µM [3]: 0%
- inhibition at 1.6 µM [3]: 1.5 ± 0.1%
- inhibition at 24 h, 0.4 µM [4]: 12 ± 4%
- inhibition at 24 h, 1.6 µM [4]: 54 ± 8.6%
- inhibition at 24 h, 2.5 µM [4]: 60 ± 9.1%
- inhibition at 48 h, 0.4 µM [4]: 16 ± 3.6%
- inhibition at 48 h, 1.6 µM [4]: 67 ± 12.1%
- inhibition at 48 h, 2.5 µM [4]: 90 ± 4.6%

Compound: Cc1cc(C(C)(C)C)c(O)c(C(C)(C)C)c1 [BHT, butylated hydroxytoluene]
- IC50 ([5]; Snipes et al., read-out: concentration causing 50% inactivation of HSV): 70 to 160 µM
- inactivation of viruses that contain lipids [6]: readily inactivated
- inactivation of viruses having no lipids [7]: comparatively insensitive

Compound: O=C1OC2(CCCCC2)C(O)=C1O [Compound 4, 4-spiro-2-hydroxytetronic acid]
- toxicity ([3H]-thymidine uptake and/or cell growth) [1, 13]: display toxicity
- inhibition at 0.4 µM [3]: 2 ± 1%
- inhibition at 1.6 µM [3]: 1.8 ± 0.2%
- inhibition at 24 h, 0.4 µM [4]: 6 ± 1.1%
- inhibition at 24 h, 1.6 µM [4]: 21 ± 12%
- inhibition at 24 h, 2.5 µM [4]: 37 ± 9.4%
- inhibition at 24 h, 10 µM [4]: 88 ± 6.1%
- inhibition at 48 h, 0.4 µM [4]: 8.4 ± 3.6%
- inhibition at 48 h, 1.6 µM [4]: 22 ± 6.1%
- inhibition at 48 h, 2.5 µM [4]: 59 ± 12.4%
- inhibition at 48 h, 10 µM [4]: 86 ± 6.1%

Compound: O=c1oc2ccc(Cl)cc2c(O)c1O [Compound 6]
- inhibition at 0.4 µM ([1]; 24 h): 11.1 ± 9.1%
- inhibition at 1.6 µM ([1]; 24 h): 31.1 ± 5.8%
- inhibition at 2.5 µM ([1]; 24 h): 17.8 ± 2%
- inhibition at 10 µM ([1]; 24 h): 90 ± 1.4%
- inhibition at 0.4 µM ([1]; 48 h): 16.7 ± 8.4%
- inhibition at 1.6 µM ([1]; 48 h): 46.8 ± 9%
- inhibition at 2.5 µM ([1]; 48 h): 20 ± 3.3%
- inhibition at 10 µM ([1]; 48 h): 99.2 ± 0.8%
- inhibition at 0.4 µM ([1]; 72 h): 31.8 ± 12%
- inhibition at 1.6 µM ([1]; 72 h): 41.4 ± 14%
- inhibition at 2.5 µM ([1]; 72 h): 17 ± 5%
- inhibition at 10 µM ([1]; 72 h): 99.2 ± 0.8%
- toxicity ([3H]-thymidine uptake and/or cell growth) [1, 13]: display toxicity
- inhibition at 0.4 µM [2, 14]: 3 ± 1.1%
- inhibition at 1.6 µM [2, 14]: 10 ± 4.6%
- inhibition at 0.4 µM [3]: 1.5 ± 0.8%
- inhibition at 1.6 µM [3]: 1.2 ± 0.6%
- inhibition at 2.5 µM [3]: 0.4 ± 0.1%
- inhibition at 24 h, 0.4 µM [4]: 21 ± 1%
- inhibition at 24 h, 1.6 µM [4]: 20 ± 6.2%
- inhibition at 24 h, 2.5 µM [4]: 56 ± 12%
- inhibition at 48 h, 0.4 µM [4]: 12 ± 6.5%
- inhibition at 48 h, 1.6 µM [4]: 30 ± 13.1%
- inhibition at 48 h, 2.5 µM [4]: 58 ± 9.4%

Compound: O=c1oc2ccc(O)cc2c(O)c1O [Compound 7]
- inhibition at 0.4 µM ([1]; 24 h): 13.6 ± 6.1%
- inhibition at 1.6 µM ([1]; 24 h): 28.6 ± 12%
- inhibition at 2.5 µM ([1]; 24 h): 36.9 ± 8.6%
- inhibition at 10 µM ([1]; 24 h): 44.3 ± 9.1%
- inhibition at 0.4 µM ([1]; 48 h): 13.9 ± 6.1%
- inhibition at 1.6 µM ([1]; 48 h): 31.7 ± 8.4%
- inhibition at 2.5 µM ([1]; 48 h): 37.2 ± 5.1%
- inhibition at 10 µM ([1]; 48 h): 46.6 ± 8%
- inhibition at 0.4 µM ([1]; 72 h): 13.9 ± 6.1%
- inhibition at 1.6 µM ([1]; 72 h): 31.6 ± 8.4%
- inhibition at 2.5 µM ([1]; 72 h): 39.3 ± 13.1%
- inhibition at 10 µM ([1]; 72 h): 48.4 ± 14%
- toxicity ([3H]-thymidine uptake and/or cell growth) [1, 13]: display toxicity
- inhibition at 10 µM [2, 14]: 10 ± 3.2%
- inhibition at 10 µM [3]: 86 ± 0.5%
- inhibition at 24 h, 0.4 µM [4]: 14.2 ± 6.2%
- inhibition at 24 h, 2.5 µM [4]: 0.4%
- inhibition at 24 h, 10 µM [4]: 1.6 ± 0.2%
- inhibition at 24 h, 50 µM [4]: 18.4 ± 6.1%
- inhibition at 24 h, 100 µM [4]: 52 ± 8%
- inhibition at 48 h, 2.5 µM [4]: 1 ± 0.4%
- inhibition at 48 h, 10 µM [4]: 2 ± 1%
- inhibition at 48 h, 50 µM [4]: 22.1 ± 8.4%
- inhibition at 48 h, 100 µM [4]: 66 ± 11.1%

Compound: O=c1oc2cc3c(cc2c(O)c1O)OCO3 [Compound 8]
- toxicity ([3H]-thymidine uptake and/or cell growth) ([1]; at 10 μM): no toxicity
- inhibition at 2.5 µM ([2]; Human alphaherpesvirus 2, HSV-2, 2.5 μmol/L, read-out: % Inhibition of PFU, IA (intracellular activity)): 1 ± 0.2%
- inhibition at 10 µM [2, 14]: 6.1 ± 1%
- inhibition at 2.5 µM [3]: 3 ± 1%
- inhibition at 10 µM [3]: 16 ± 8%
- inhibition at 24 h, 2.5 µM [4]: 2 ± 0.6%
- inhibition at 24 h, 10 µM [4]: 6.6 ± 1%
- inhibition at 24 h, 50 µM [4]: 54 ± 2%
- inhibition at 24 h, 100 µM [4]: 68 ± 7.6%
- inhibition at 48 h, 2.5 µM [4]: 4.2 ± 3.6%
- inhibition at 48 h, 10 µM [4]: 8.1 ± 2.1%
- inhibition at 48 h, 50 µM [4]: 52.2 ± 9.1%
- inhibition at 48 h, 100 µM [4]: 71 ± 8.1%

Compound: CC(=O)N1CCN(c2ccc(OCC3COC(Cn4ccnc4)(c4ccc(Cl)cc4Cl)O3)cc2)CC1 (centres unmarked) [Ketoconazole]
- reduction in protein synthesis ([8]; 10 μg/mL): 38%
- cellular protein synthesis [8]: decrease in cellular protein synthesis
- inhibition in HBV surface antigen production ([9]; 10 μg/mL): 72%
- HBV surface antigen production [9]: non-specifically inhibits HBV surface antigen production

Compound: CCOC(=O)C(C)(C)Oc1ccc(Cl)cc1 [clofibrate, clofibric acid ethyl ester]
- antiherpetic activity ([5]; Steinhart et al.): antiherpetic activity

Compound: CC(C)(Oc1ccc(Cl)cc1)C(=O)O [clofibric acid, reference compound]
- inhibition at 500 µM ([2]; Human alphaherpesvirus 2, 500 μM, one experiment, n=3 wells, P<0.02, read-out: inhibition (PFU), virus-infected cells): 66 ± 6%
- inhibition, extracellular treatment of HSV-2 ([3]; 500 μM, P>0.05): no significant (P>0.05) inhibition
- anti-HSV-1 activity (inhibition) ([10]; 500 μM, Mehl): 45%
- inhibition of replication of HSV-1 ([10]; BGM 70 cells): inhibit replication of herpes simplex virus type 1 (HSV-1)

Compound: CCCCCCCCCCO [decanol]
- extracellular inactivation of HSV [5]: 90-100%

Compound: CCCCCCCCCCCCO [dodecanol]
- extracellular inactivation of HSV [5]: 90-100%

Compound: CCCCC[C@@H](O)[C@H]1C(=O)O[C@H](C)[C@@H](O)/C=C/C=C/C=C/C=C/C=C(\C)[C@@H](O)C[C@H](O)C[C@H](O)C[C@H](O)C[C@H](O)C[C@H](O)C[C@@H]1O [filipin]
- inactivation of enveloped viruses [6]: inactivates enveloped viruses

Compound: C/C(=C\CO)CCC[C@H](C)CCC[C@H](C)CCCC(C)C [phytol]
- concentration inhibiting HSV [5]: 0.01 to 0.1 mM
- concentration inhibiting enveloped virus .phi. 6 [11]: 10^-6 to 10^-4 mM

Compound: CCCCCCCCCCCCCCO [tetradecanol]
- extracellular inactivation of HSV [5]: 90-100%

Compound: benzalkonium chloride
- inactivation of HIV [12]: inactivate HIV
- concentration destroying the infectiousness of HIV ([12]; general fluids of seropositive individuals): 0.05%

Compound: nonoxynol-9
- inactivation of HIV [12]: inactivate HIV
